This is an account of results in patent US20240041042A1, “1-(PYRIDYL)-5-AZINYLPYRAZOLE DERIVATIVES, AND THEIR USE FOR CONTROL OF UNDESIRED PLANT GROWTH” (Bayer Aktiengesellschaft, priority 2020, published 2024).

Holding throughout (type): in vivo
The subject of series [1] is Amaranthus retroflexus (AMARE). Briefly: Pre-emergence herbicidal action against AMARE. As to conditions: visual scoring after about 3 weeks vs untreated controls. The method in brief: (§1)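 Greenhouse pot trial: seeds sown, soil-covered, sprayed before emergence with compound in water (0.5% additive; 600 l/ha; ≤320 g/ha). Scoring visual, ~3 weeks, 0–100% scale vs untreated.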

The subject of another series is Glycine max (GLXMA). As to conditions: pre-emergence, 80 g/ha, crop plant compatibility, in comparison to untreated controls. The procedure, abridged:
(§2)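 Scoring: visual, % of untreated control, about 3 weeks after a pre-emergence application to the soil surface. Application used WP or EC formulations diluted in water with 0.5% additive at 600 l/ha; dosage levels are marked by suffixes a, b and c.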

The test system of series [2] is Oryza sativa (ORYSA). As to conditions: pre-emergence, crop plant compatibility, in comparison to untreated controls. The method in brief:
as §2

The subject of series [3] is Triticum aestivum (TRZAS). As to conditions: pre-emergence, crop plant compatibility, in comparison to untreated controls. The method in brief: as §2
Series [4] relates to Zea mays (ZEAMX). Conditions: pre-emergence, crop plant compatibility, in comparison to untreated controls. The method in brief:
as §2

Series [5] has as its system Amaranthus retroflexus (AMARE). Briefly: Post-emergence herbicidal action against AMARE. The procedure, abridged:
(§3)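 Values are percent visual activity (0% like control, 100% plants dead) after about 3 weeks in the greenhouse. Treatment: post-emergence spray at one-leaf stage, 600 l/ha spray volume, 0.5% additive, doses 320 g/ha or lower.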

In series [6] the test system is Pharbitis purpurea (PHBPU). Description: Post-emergence herbicidal action against PHBPU. The method in brief: as §3
For series [7], the system named is Oryza sativa (ORYSA). Conditions: crop plant compatibility. The method in brief:
(§4)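 Test crops were treated 2 to 3 weeks after sowing, once they reached one leaf, by spraying compound in water with 0.5% additive at 600 l/ha. Visual scoring compared them with untreated controls roughly 3 weeks on, and appendices a, b and c denote different doses.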

Series [8] relates to Triticum aestivum (TRZAS). Conditions: crop plant compatibility, effect vs untreated controls. The procedure, abridged:
as §4

For series [9], the system named is Zea mays (ZEAMX). As to conditions: for Post-emergence action against ZEAMX in %: crop plant compatibility, effect vs untreated controls. The method in brief: as §4
Series [10] has as its system Viola tricolor (VIOTR). Description: Pre-emergence herbicidal action against VIOTR. The procedure, abridged:
as §1

In series [11] the test system is Abutilon theophrasti (ABUTH). Description: Pre-emergence herbicidal action against ABUTH. Conditions: Dosage column 320 g/ha (title prints 3200 g/ha); scored visually after about 3 weeks; 100% = plants have died. The method in brief: as §1
Series [12] concerns Alopecurus myosuroides (ALOMY). Description: Pre-emergence herbicidal action against ALOMY. As to conditions: 320 g/ha; scored visually after about 3 weeks; 100% = plants have died. The method in brief: as §1
The test system of series [13] is Avena fatua (AVEFA). Briefly: Pre-emergence herbicidal action against AVEFA. As to conditions: 320 g/ha, visual scoring after about 3 weeks vs untreated controls. The method in brief: as §1
The subject of series [14] is Echinochloa crus-galli (ECHCG). Briefly: Pre-emergence herbicidal action against ECHCG. As to conditions: dosage 320 g/ha. The procedure, abridged:
as §1

Series [15] relates to Lolium rigidum (LOLRI). Description: Pre-emergence herbicidal action against LOLRI. As to conditions: dosage 320 g/ha. The method in brief:
as §1

Series [16] concerns Matricaria inodora (MATIN). Description: Pre-emergence herbicidal action against MATIN. The procedure, abridged:
as §1

Series [17] deals with Polygonum convolvulus (POLCO). Briefly: Pre-emergence herbicidal action against POLCO. The method in brief: as §1
For series [18], the system named is Setaria viridis (SETVI). Briefly: Pre-emergence herbicidal action against SETVI. Conditions: dosage 320 g/ha. The method in brief: as §1
The subject of series [19] is Abutilon theophrasti (ABUTH). Description: Post-emergence herbicidal action against ABUTH. Conditions: visual rating about 3 weeks after treatment vs untreated controls (100% = plants have died, 0% = like control plants). The method in brief:
as §3

The subject of series [20] is Avena fatua (AVEFA). Briefly: Post-emergence herbicidal action against AVEFA. As to conditions: 320 g/ha, visual rating about 3 weeks after treatment. The procedure, abridged:
as §3

Series [21] has as its system Echinochloa crus-galli (ECHCG). Description: Post-emergence herbicidal action against ECHCG. The procedure, abridged: as §3
For series [22], the system named is Lolium rigidum (LOLRI). Briefly: Post-emergence herbicidal action against LOLRI. Conditions: dosage 320 g/ha. The procedure, abridged: as §3
Series [23] has as its system Matricaria inodora (MATIN). Briefly: Post-emergence herbicidal action against MATIN. The procedure, abridged:
as §3

In series [24] the test system is Polygonum convolvulus (POLCO). Description: Post-emergence herbicidal action against POLCO. Conditions: dosage 320 g/ha. The method in brief: as §3
Series [25] relates to Setaria viridis (SETVI). Description: Post-emergence herbicidal action against SETVI. The procedure, abridged:
as §3

In series [26] the test system is Verconica persica (VERPE). Description: Post-emergence herbicidal action against VERPE. As to conditions: 320 g/ha, VERPE. The method in brief:
as §3

Series [27] relates to Viola tricolor (VIOTR). Description: Post-emergence herbicidal action against VIOTR. The method in brief:
as §3

[28] abbreviates: 80 g/ha, visual rating about 3 weeks after treatment vs untreated controls (100% = plants have died, 0% = like control plants).
Where [29] appears, read: 80 g/ha, effect in comparison to untreated controls.
The mark [30] stands for this setting: 320 g/ha, visual rating about 3 weeks after treatment.

Read-outs that look alike come from different tables or passages of the source.

Regarding `COC(=O)[C@H](C)COC(=O)COc1nn(-c2ccnc(Cl)c2)c(-c2ccc(F)nc2)c1Br` [III-17], in [1] (320 g/ha), the “Pre-emergence action against AMARE in %” value is given as 90%. Besides, the “Pre-emergence action against GLXMA in %” value in the series with Glycine max (GLXMA) is given as 0%. Further, the entries for the “Pre-emergence action against ORYSA in %” value in the series with Oryza sativa (ORYSA) [2] (80 g/ha) and with Oryza sativa (ORYSA) [2] (320 g/ha) were 0% and 10%, respectively. Besides, in series [3] (80 g/ha), the “Pre-emergence action against TRZAS in %” value was 0%. For the same compound, the “Pre-emergence action against ZEAMX in %” value with Zea mays (ZEAMX) [4] (80 g/ha) and in the series on Zea mays (ZEAMX) [4] (320 g/ha) was 20% each time. In addition, in series [5] (setting [28]), the “Post-emergence action against AMARE in %” value came out at 80%. Further, the “Post-emergence action against PHBPU in %” value in [6] (dosage 80 g/ha) is listed as 80%. Besides, the “Post-emergence action against ORYSA in %” value with Oryza sativa (ORYSA) [7] (20 g/ha, effect vs untreated controls) is on record as 0%; in the series on Oryza sativa (ORYSA) [7] (setting [29]), 0%. In [8] (20 g/ha), the “Post-emergence action against TRZAS in %” value was 20%. The “Post-emergence action against ZEAMX in % (crop plant compatibility)” value in the series on Zea mays (ZEAMX) [9] (20 g/ha, ZEAMX, effect in comparison to untreated controls) is given as 20%. For the same compound, the “Post-emergence action against ZEAMX in %” value with Zea mays (ZEAMX) [9] (80 g/ha) was 20%.

Regarding `O=C(O)COc1nn(-c2ccncc2)c(-c2ccc(F)nc2)c1Br` [III-09], in [1] (320 g/ha), the “Pre-emergence action against AMARE in %” value came to 80%. In addition, the “Pre-emergence action against VIOTR in %” value in the series with Viola tricolor (VIOTR) [10] (320 g/ha, Viola tricolor) is 80%. For the same compound, the “Pre-emergence action against GLXMA in %” value in the series on Glycine max (GLXMA) is 20%. Also, the “Pre-emergence action against ORYSA in %” value in the series with Oryza sativa (ORYSA) [2] (80 g/ha) and with Oryza sativa (ORYSA) [2] (320 g/ha) was 0% each time. Also, the “Pre-emergence action against TRZAS in %” value in series [3] (80 g/ha) and in series [3] (320 g/ha) was 0% each time. Moreover, the “Pre-emergence action against ZEAMX in %” value in the series on Zea mays (ZEAMX) [4] (80 g/ha) and in the series on Zea mays (ZEAMX) [4] (320 g/ha) was 0% in each case. Further, in [5] (setting [30]), the “Post-emergence action against AMARE in %” value stood at 80%. Besides, the “Post-emergence action against ORYSA in %” value came out at 0% with Oryza sativa (ORYSA) [7] (setting [29]) and 0% with Oryza sativa (ORYSA) [7] (320 g/ha, effect in comparison to untreated controls). Besides, the “Post-emergence action against TRZAS in %” value in series [8] (80 g/ha) and in series [8] (320 g/ha) was 0% each time. For the same compound, the “Post-emergence action against ZEAMX in %” value in the series on Zea mays (ZEAMX) [9] (80 g/ha) and in the series with Zea mays (ZEAMX) [9] (320 g/ha) was 10% throughout.

As for `CCOC(=O)CSc1nn(-c2ccccn2)c(-c2cncc(F)c2)c1Cl` [Example I-183], in [11], the “Pre-emergence action against ABUTH” value was determined as 80%. Moreover, in [12], the “Pre-emergence action against ALOMY” value is reported as 80%. Also, the “Pre-emergence action against AMARE in %” value in [1] (80 g/ha) was found to be 80%; in series [1] (320 g/ha) it was 100%. Further, the “Pre-emergence action against AVEFA in %” value with Avena fatua (AVEFA) [13] came to 80%. The “Pre-emergence action against ECHCG in %” value in [14] came to 100%. The “Pre-emergence action against LOLRI in %” value in the series on Lolium rigidum (LOLRI) [15] is recorded as 90%. Also, the “Pre-emergence action against MATIN in %” value in series [16] (dosage 80 g/ha) and in [16] (dosage 320 g/ha) was 90% in each case. In addition, the “Pre-emergence action against POLCO in %” value is 80% in series [17] (dosage 80 g/ha) and 90% in series [17] (dosage 320 g/ha). In addition, the “Pre-emergence action against SETVI in %” value with Setaria viridis (SETVI) [18] is on record as 90%. Further, the “Pre-emergence action against VIOTR in %” value was determined as 100% in the series on Viola tricolor (VIOTR) [10] (320 g/ha, Viola tricolor) and 80% in the series on Viola tricolor (VIOTR) [10] (dosage 80 g/ha). Further, the “Pre-emergence action against GLXMA in %” value in the series with Glycine max (GLXMA) was determined as 0%. The “Pre-emergence action against TRZAS in %” value in series [3] (80 g/ha) came to 0%. Besides, the “Post-emergence action against ABUTH in %” value in series [19] (80 g/ha) and in series [19] (320 g/ha) was 80% in each case. Besides, the “Post-emergence action against AMARE in %” value in series [5] (setting [28]) and in series [5] (setting [30]) was 90% in each case. Moreover, in the series with Avena fatua (AVEFA) [20], the “Post-emergence action against AVEFA in %” value is 90%. Moreover, the “Post-emergence action against ECHCG in %” value in series [21] (dosage 80 g/ha) and in series [21] (dosage 320 g/ha) was 90% each time. Besides, in the series with Lolium rigidum (LOLRI) [22], the “Post-emergence action against LOLRI in %” value is 90%. In addition, the “Post-emergence action against MATIN in %” value in [23] (dosage 80 g/ha) and in series [23] (dosage 320 g/ha) was 80% in each case. Also, the “Post-emergence action against PHBPU in %” value in series [6] (dosage 80 g/ha) is 80%; in series [6] (dosage 320 g/ha), 90%. In addition, the “Post-emergence action against POLCO in %” value in series [24] was determined as 90%. For the same compound, the “Post-emergence action against SETVI in %” value in the series on Setaria viridis (SETVI) [25] (dosage 80 g/ha) and in the series on Setaria viridis (SETVI) [25] (dosage 320 g/ha) was 90% throughout. In series [26], the “Post-emergence action against VERPE in %” value is 90%. For the same compound, the “Post-emergence action against VIOTR in %” value in the series with Viola tricolor (VIOTR) [27] (80 g/ha) and in the series on Viola tricolor (VIOTR) [27] (320 g/ha) was 90% each time.
